Measurements reported in PubChem BioAssay AID1919015 (Molecular Pharmacology Branch, DTP, NCI, 2023).

Test system: OVCAR-5 complex spheroids with HUVEC/MSC, viability, % test/control
Assay: Anticancer human tumor OVCAR-5 cell line growth inhibition [AhR];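 note: spheroids exposed to compounds for 7 days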;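 for viability, T/C: 100% = DMSO vehicle control wells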
Conditions: for IC50: curve of first compound; for viability, T/C: stronger effect = lower value
Outline: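 Spheroids combined tumor cells with HUVEC endothelial cells and human MSCs as stroma. AhR antagonists were paired with standard or investigational drugs, each dosed in half-log steps down from near clinical Cmax, or from 10 microM where Cmax was unknown.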

[1] = second compound 0.1 µM, first compound 0.0316 µM
[2] = second compound 0.1 µM, first compound 0.1 µM
[3] = second compound 0.1 µM, first compound 0.316 µM
[4] = second compound 0.1 µM, first compound 1 µM
[5] = second compound 0.1 µM, first compound 3.16 µM
[6] = second compound 0.1 µM, first compound 10 µM
[7] = second compound 0.316 µM, first compound 0.0316 µM
[8] = second compound 0.316 µM, first compound 0.1 µM
[9] = second compound 0.316 µM, first compound 0.316 µM
[10] = second compound 0.316 µM, first compound 1 µM
[11] = second compound 0.316 µM, first compound 3.16 µM
[12] = second compound 0.316 µM, first compound 10 µM
[13] = second compound 1 µM, first compound 0.0316 µM
[14] = second compound 1 µM, first compound 0.1 µM
[15] = second compound 1 µM, first compound 0.316 µM
[16] = second compound 1 µM, first compound 1 µM
[17] = second compound 1 µM, first compound 3.16 µM
[18] = second compound 1 µM, first compound 10 µM
[19] = second compound 3.16 µM, first compound 0.0316 µM
[20] = second compound 3.16 µM, first compound 0.1 µM
[21] = second compound 3.16 µM, first compound 0.316 µM
[22] = second compound 3.16 µM, first compound 1 µM
[23] = second compound 3.16 µM, first compound 3.16 µM
[24] = second compound 3.16 µM, first compound 10 µM
[25] = second compound 10 µM, first compound 0.0316 µM
[26] = second compound 10 µM, first compound 0.1 µM
[27] = second compound 10 µM, first compound 0.316 µM
[28] = second compound 10 µM, first compound 1 µM
[29] = second compound 10 µM, first compound 3.16 µM
[30] = second compound 10 µM, first compound 10 µM

Q: What does the source list for `CC(C)c1c(-c2ccccc2)nc2c(C#N)c[nH]n2c1=O` + Cc1ccccc1N=Nc1ccc(NC(=O)c2ccnn2C)c(C)c1?
A: IC50 (second compound 0.1 µM): > 10000 nM; IC50 (second compound 0.316 µM): > 10000 nM; IC50 (second compound 1 µM): > 10000 nM; IC50 (second compound 3.16 µM): > 10000 nM; IC50 (second compound 10 µM): > 10000 nM; viability, T/C [1]: 104%; viability, T/C [2]: 102%; viability, T/C [3]: 101%; viability, T/C [4]: 101%; viability, T/C [5]: 104%; viability, T/C [6]: 106%; viability, T/C [7]: 105%; viability, T/C [8]: 111%; viability, T/C [9]: 106%; viability, T/C [10]: 103%; viability, T/C [11]: 106%; viability, T/C [12]: 104%; viability, T/C [13]: 112%; viability, T/C [14]: 109%; viability, T/C [15]: 109%; viability, T/C [16]: 106%; viability, T/C [17]: 106%; viability, T/C [18]: 111%; viability, T/C [19]: 112%; viability, T/C [20]: 112%; viability, T/C [21]: 111%; viability, T/C [22]: 108%; viability, T/C [23]: 111%; viability, T/C [24]: 114%; viability, T/C [25]: 108%; viability, T/C [26]: 110%; viability, T/C [27]: 108%; viability, T/C [28]: 107%; viability, T/C [29]: 104%; viability, T/C [30]: 104%

Q: How did the IC50 (second compound 0.1 µM) turn out when `CC1COCCN1c1cc(-c2ccnn2C)c2ccnc(-c3ccn[nH]3)c2n1` (stereo not given) + Cc1ccccc1N=Nc1ccc(NC(=O)c2ccnn2C)c(C)c1 was run?
A: 244 nM

Q: And the IC50 (second compound 0.316 µM)?
A: 253 nM

Q: And the IC50 (second compound 1 µM)?
A: 284 nM

Q: What about the IC50 (second compound 3.16 µM) of the same compound?
A: 269 nM

Q: And the IC50 (second compound 10 µM)?
A: 272 nM

Q: What about the viability, T/C (second compound 0.1 µM, first compound 0.00316 µM) of the same compound?
A: 102%

Q: What about the viability, T/C (second compound 0.1 µM, first compound 0.01 µM) of the same compound?
A: 101%

Q: And the viability, T/C [1]?
A: 98.5%

Q: What about the viability, T/C [2] of the same compound?
A: 79.9%

Q: And the viability, T/C [3]?
A: 41.4%

Q: What about the viability, T/C [4] of the same compound?
A: 26.3%

Q: And the viability, T/C (second compound 0.316 µM, first compound 0.00316 µM)?
A: 104%

Q: What about the viability, T/C (second compound 0.316 µM, first compound 0.01 µM) of the same compound?
A: 105%

Q: What about the viability, T/C [7] of the same compound?
A: 101%

Q: What about the viability, T/C [8] of the same compound?
A: 81.1%

Q: And the viability, T/C [9]?
A: 42.5%

Q: What about the viability, T/C [10] of the same compound?
A: 28.2%

Q: What about the viability, T/C (second compound 1 µM, first compound 0.00316 µM) of the same compound?
A: 108%

Q: What about the viability, T/C (second compound 1 µM, first compound 0.01 µM) of the same compound?
A: 110%

Q: And the viability, T/C [13]?
A: 101%

Q: What about the viability, T/C [14] of the same compound?
A: 87.5%

Q: And the viability, T/C [15]?
A: 45.5%

Q: And the viability, T/C [16]?
A: 30.1%

Q: And the viability, T/C (second compound 3.16 µM, first compound 0.00316 µM)?
A: 109%

Q: What about the viability, T/C (second compound 3.16 µM, first compound 0.01 µM) of the same compound?
A: 109%

Q: What about the viability, T/C [19] of the same compound?
A: 105%

Q: What about the viability, T/C [20] of the same compound?
A: 88.6%

Q: And the viability, T/C [21]?
A: 43.4%

Q: What about the viability, T/C [22] of the same compound?
A: 32.5%

Q: What about the viability, T/C (second compound 10 µM, first compound 0.00316 µM) of the same compound?
A: 105%

Q: And the viability, T/C (second compound 10 µM, first compound 0.01 µM)?
A: 106%

Q: And the viability, T/C [25]?
A: 101%

Q: What about the viability, T/C [26] of the same compound?
A: 82.2%

Q: What about the viability, T/C [27] of the same compound?
A: 45%

Q: What about the viability, T/C [28] of the same compound?
A: 33%

Q: Which results are given for `CC1COCCN1c1cc(C2(S(C)(=N)=O)CC2)nc(-c2ccnc3[nH]ccc23)n1` (stereo not given) + Cc1ccccc1N=Nc1ccc(NC(=O)c2ccnn2C)c(C)c1?
A: IC50 (second compound 0.1 µM): 7020 nM; IC50 (second compound 0.316 µM): 7540 nM; IC50 (second compound 1 µM): 9320 nM; IC50 (second compound 3.16 µM): 9730 nM; IC50 (second compound 10 µM): > 10000 nM; viability, T/C [1]: 107%; viability, T/C [2]: 108%; viability, T/C [3]: 105%; viability, T/C [4]: 99.7%; viability, T/C [5]: 74.8%; viability, T/C [6]: 38.9%; viability, T/C [7]: 111%; viability, T/C [8]: 111%; viability, T/C [9]: 108%; viability, T/C [10]: 100%; viability, T/C [11]: 78.9%; viability, T/C [12]: 40.6%; viability, T/C [13]: 114%; viability, T/C [14]: 115%; viability, T/C [15]: 115%; viability, T/C [16]: 105%; viability, T/C [17]: 83.3%; viability, T/C [18]: 47.8%; viability, T/C [19]: 111%; viability, T/C [20]: 121%; viability, T/C [21]: 116%; viability, T/C [22]: 106%; viability, T/C [23]: 85.9%; viability, T/C [24]: 49%; viability, T/C [25]: 107%; viability, T/C [26]: 110%; viability, T/C [27]: 111%; viability, T/C [28]: 105%; viability, T/C [29]: 85.4%; viability, T/C [30]: 50.8%

Q: What does the source list for `COc1ccc([C@@H](O)c2cc(-c3ncnc4cc(N5CCOCC5)ccc34)c(F)cc2Cl)nn1` + Cc1ccccc1N=Nc1ccc(NC(=O)c2ccnn2C)c(C)c1?
A: IC50 (second compound 0.1 µM): 2910 nM; IC50 (second compound 0.316 µM): 2980 nM; IC50 (second compound 1 µM): 3750 nM; IC50 (second compound 3.16 µM): 4540 nM; IC50 (second compound 10 µM): 3230 nM; viability, T/C [1]: 102%; viability, T/C [2]: 101%; viability, T/C [3]: 95.5%; viability, T/C [4]: 76.3%; viability, T/C [5]: 48.4%; viability, T/C [6]: 24.1%; viability, T/C [7]: 104%; viability, T/C [8]: 102%; viability, T/C [9]: 97.5%; viability, T/C [10]: 76.8%; viability, T/C [11]: 49.1%; viability, T/C [12]: 27.6%; viability, T/C [13]: 109%; viability, T/C [14]: 107%; viability, T/C [15]: 99.5%; viability, T/C [16]: 87.5%; viability, T/C [17]: 53.5%; viability, T/C [18]: 26%; viability, T/C [19]: 113%; viability, T/C [20]: 106%; viability, T/C [21]: 98.9%; viability, T/C [22]: 85.1%; viability, T/C [23]: 57.6%; viability, T/C [24]: 31.6%; viability, T/C [25]: 103%; viability, T/C [26]: 98.9%; viability, T/C [27]: 96.3%; viability, T/C [28]: 76.7%; viability, T/C [29]: 51.2%; viability, T/C [30]: 22.8%

Q: `O=C(C=Cn1cnc(-c2cc(C(F)(F)F)cc(C(F)(F)F)c2)n1)NNc1cnccn1` + Cc1ccccc1N=Nc1ccc(NC(=O)c2ccnn2C)c(C)c1 was tested. Which IC50 (second compound 0.1 µM) did it give?
A: 1750 nM

Q: And the IC50 (second compound 0.316 µM)?
A: 2350 nM

Q: What about the IC50 (second compound 1 µM) of the same compound?
A: 2830 nM

Q: And the IC50 (second compound 3.16 µM)?
A: 2120 nM

Q: What about the IC50 (second compound 10 µM) of the same compound?
A: 1640 nM

Q: And the viability, T/C (second compound 0.1 µM, first compound 0.00949 µM)?
A: 109%

Q: And the viability, T/C (second compound 0.1 µM, first compound 0.03 µM)?
A: 113%

Q: What about the viability, T/C (second compound 0.1 µM, first compound 0.0949 µM) of the same compound?
A: 102%

Q: What about the viability, T/C (second compound 0.1 µM, first compound 0.3 µM) of the same compound?
A: 83.4%

Q: What about the viability, T/C (second compound 0.1 µM, first compound 0.949 µM) of the same compound?
A: 59.2%

Q: What about the viability, T/C (second compound 0.1 µM, first compound 3 µM) of the same compound?
A: 42.2%

Q: And the viability, T/C (second compound 0.316 µM, first compound 0.00949 µM)?
A: 115%

Q: What about the viability, T/C (second compound 0.316 µM, first compound 0.03 µM) of the same compound?
A: 109%

Q: And the viability, T/C (second compound 0.316 µM, first compound 0.0949 µM)?
A: 100%

Q: What about the viability, T/C (second compound 0.316 µM, first compound 0.3 µM) of the same compound?
A: 82.4%

Q: And the viability, T/C (second compound 0.316 µM, first compound 0.949 µM)?
A: 59.6%

Q: And the viability, T/C (second compound 0.316 µM, first compound 3 µM)?
A: 47.5%

Q: What about the viability, T/C (second compound 1 µM, first compound 0.00949 µM) of the same compound?
A: 114%

Q: What about the viability, T/C (second compound 1 µM, first compound 0.03 µM) of the same compound?
A: 116%

Q: What about the viability, T/C (second compound 1 µM, first compound 0.0949 µM) of the same compound?
A: 106%

Q: What about the viability, T/C (second compound 1 µM, first compound 0.3 µM) of the same compound?
A: 90%

Q: What about the viability, T/C (second compound 1 µM, first compound 0.949 µM) of the same compound?
A: 64.6%

Q: And the viability, T/C (second compound 1 µM, first compound 3 µM)?
A: 49.2%

Q: And the viability, T/C (second compound 3.16 µM, first compound 0.00949 µM)?
A: 114%

Q: What about the viability, T/C (second compound 3.16 µM, first compound 0.03 µM) of the same compound?
A: 118%

Q: And the viability, T/C (second compound 3.16 µM, first compound 0.0949 µM)?
A: 113%

Q: What about the viability, T/C (second compound 3.16 µM, first compound 0.3 µM) of the same compound?
A: 90.8%

Q: And the viability, T/C (second compound 3.16 µM, first compound 0.949 µM)?
A: 66.7%

Q: And the viability, T/C (second compound 3.16 µM, first compound 3 µM)?
A: 43%

Q: And the viability, T/C (second compound 10 µM, first compound 0.00949 µM)?
A: 108%

Q: What about the viability, T/C (second compound 10 µM, first compound 0.03 µM) of the same compound?
A: 111%

Q: What about the viability, T/C (second compound 10 µM, first compound 0.0949 µM) of the same compound?
A: 108%

Q: And the viability, T/C (second compound 10 µM, first compound 0.3 µM)?
A: 89.3%

Q: What about the viability, T/C (second compound 10 µM, first compound 0.949 µM) of the same compound?
A: 63%

Q: What about the viability, T/C (second compound 10 µM, first compound 3 µM) of the same compound?
A: 36.4%
